The values below come from patent US20180153830A1, “SELECTIVE INHIBITORS OF UNDIFFERENTIATED CELLS” (Yissum Research Development Company of the Hebrew …, priority 2012, published 2018).

What all share (type): cell-based
In assay [1] the test system is CSES2-SO2/3 ES-derived endodermal progenitors. As to the kind of experiment: CellTiter-Glo counter-screen, endodermal progenitors. The note with it: Homo sapiens. The protocol: CSES2-SO2/3 embryonic stem cells were differentiated to endodermal progenitors using an established protocol [Duan et al. Stem Cells 28:674-686 (2010)]. Undifferentiated cells were seeded at a density of 10,000 cells/cm^2 on MatrigelT™-coated plates, with mTeSR1 medium. The next day (day 1), medium was replaced to serum-free RPMI-1640, supplemented with 2 mM glutamine, 100 ng/ml Activin A 60 μg/ml of G418 geneticin sulfate and 0.3 μg/ml of puromycin. From day 3 to day 8, the same medium was also supplemented with 1×B27 supplement (Invitrogen) and 0.5 mM sodium butyrate. The cellular identity of the cells as endodermal progenitors was verified by quantifying the percentage of green SOX17+ cells, and the percentage of CXCR4+ cells, using a Guava® EasyCyte™ Plus flow cytometry system (Millipore). Further validation was obtained by fluorescence-staining of the cells with an antibody against the early endodermal surface marker CXCR4 (CXCR4-PE antibody, 1:25; BD Biosciences). The percentage of CXCR4+ cells was also quantified using the Guava® EasyCyte™ Plus flow cytometry system.
696 confirmed hits from the confirmation screen were tested for profiling in a panel of 13 different cell types, using the same screening protocol described above (except in the case of embryonic stem cell-derived neural stem cells (NSCs) and mesenchymal stem cells (MSCs), for which the protocol is described below). As discussed below, compounds were tested either in dose-dependent multiple concentration manner or in single concentration manner. […] BJ-iPS28 cell line and the BJ fibroblasts from which it was derived were screened at 6 concentrations ranging from 50 μM to 200 nM with 1:3 serial dilution steps. Cardiomyocytes were screened in one concentration of 20 μM. HeLa and NTERA-2 cell lines were screened in duplicates of 20 μM. Kelly and Huh-7 were screened in triplicates of 20 μM. Hepatocytes were screened in duplicates of 20 μM in the original 96-well plates in which the cells arrived (40,000 cells per well, in 160 μl medium, the volumes of all reagents involved were adjusted accordingly). MSCs and NSCs were screened in duplicates of 12.5 μM.
(§1) In order to identify highly-selective cytotoxic inhibitors of hPSCs, the 696 cytotoxic inhibitors of hPSCs identified as described in Example 1 were counter-screened as described in the Materials and Methods section against other cell types, representative of all germ layers and developmental stages. Importantly, many of these cell types were differentiated from human ES or iPS cells. The screened cell types included ES-derived neural stem cells (NSCs), ES-derived mesenchymal stem cells (MSCs), ES-derived endodermal progenitor cells, ES-derived hepatocytes, iPS-derived cardiomyocytes, iPS-derived fibroblasts of origin (BJ fibroblasts), and three cancer cell lines: neuroblastoma (Kelly), cervical cancer (HeLa) and hepatocarcinoma (Huh7). The cell types and their relationship to stem cells are depicted schematically in FIG. 14.
The identified compounds were screened at 8 concentrations using both the undifferentiated red cells and the differentiated green cells, and reliable EC50 values were thereby calculated for the genetically identical differentiated and undifferentiated cells.
A general note: ATP-based viability assays read luminescence as a measure of living cells.

The subject of assay [2] is CSES2-SO2/3 embryonic stem cells. Nature of the assay: CellTiter-Glo luminescent cell viability screen, CSES2-SO2/3. The note with it: Homo sapiens. The protocol:
5,000 CSES2 cells were plated in 50 μl per well of mTeSR1 medium into black 384-well clear-bottom plates (Falcon BD) pre-coated with Matrigel™ using WellMate cell dispenser (Matrix, Hudson, N.H.). 24 hours after plating, medium was replaced with 25 μl of fresh medium and 25 μl of 40 μM compound medium solutions in 1% DMSO from the intermediate compound dilution plates. The plates were incubated at 37° C., in a 5% CO2 atmosphere, for the entire duration of the screen, apart from the time required for liquid handling. Cell viability was determined 24 hours after compound treatment using CellTiter-Glo® luminescent cell viability assay kits. 50 μl of CellTiter-Glo® reagent was added to each well of the assay plates and fully mixed. After incubation at room temperature for 15 minutes, 25 μl of liquid was transferred from each well into a white opaque-bottom 384-well plate (PerkinElmer), and luminescence was measured using an EnVision® plate reader (PerkinElmer). 16 neutral control wells (0.5% DMSO) and 8 positive control wells (5 μM amsacrine hydrochloride were used to normalize the compound effect. All liquid transfer steps were handled with a Biomek® FXP Laboratory Automation Workstation (Beckman Coulter, Fullerton, Calif.) and Muitidrop Combi liquid dispenser (Thermo Fisher, Waltham, Mass.). An Assay Analyzer (Genedata, Basel, Switzerland) was used for data pattern correction and calculation. The Spotfire software (Spotfire, Somerville, Mass.) was used for data illustration.
The compounds identified as hits from the primary screen were retested at a concentration of 20 μM against three pluripotent stem cell lines (CSES2, H9 and CSES2-SO2/3) for confirmation screens.
(§2) 696 confirmed hits from the confirmation screen were tested for profiling in a panel of 13 different cell types, using the same screening protocol described above (except in the case of embryonic stem cell-derived neural stem cells (NSCs) and mesenchymal stem cells (MSCs), for which the protocol is described below). As discussed below, compounds were tested either in dose-dependent multiple concentration manner or in single concentration manner. CSES2 and CSES2-SO2/3 cell lines and the early endodermal progenitors derived from this cell line (CSES2-SO2/3-differentiated) were screened at 8 concentrations ranging from 50 μM to 23 nM with 1:3 serial dilution steps. BJ-iPS28 cell line and the BJ fibroblasts from which it was derived were screened at 6 concentrations ranging from 50 μM to 200 nM with 1:3 serial dilution steps. Cardiomyocytes were screened in one concentration of 20 μM. HeLa and NTERA-2 cell lines were screened in duplicates of 20 μM. Kelly and Huh-7 were screened in triplicates of 20 μM. Hepatocytes were screened in duplicates of 20 μM in the original 96-well plates in which the cells arrived (40,000 cells per well, in 160 μl medium, the volumes of all reagents involved were adjusted accordingly). MSCs and NSCs were screened in duplicates of 12.5 μM.
The raw intensity data for each well were background-corrected by subtraction of the median intensities across all positive control wells on the same plate, and used to calculate the inhibitory effect of each compound per cell line. A Genedata Assay Analyzer and Condoseo were used for data pattern correction, calculation and IC50 curve fitting. A Z′ factor was determined for each plate.

Assay [3] has as its system BJ-fibroblasts. Nature of the assay: CellTiter-Glo counter-screen, BJ-fibroblasts. The settings on record: Homo sapiens. The protocol: The cervical carcinoma cell line HeLa, teratocarcinoma cell line NTERA-2, and immortalized BJ fibroblast cell line, were cultured in DMEM supplemented with 10% FBS, penicillin (50 U/ml) and streptomycin (50 μg/ml).
as §2, §1
In addition, the identified compounds were screened at 6 concentrations using the BJ-fibroblasts from which the iPS line BJ-iPS28 had been derived, and reliable EC50 values were thereby calculated for both the iPS cells and for their somatic cells of origin.

Assay [4] concerns neuroblastoma (Kelly) cells. Nature of the assay: CellTiter-Glo counter-screen, Kelly. The settings on record: Homo sapiens, cancer cells. The protocol:
The neuroblastoma cell line Kelly was cultured in RPMI-1640 medium, supplemented with 15% fetal bovine serum (FBS), penicillin (50 U/ml) and streptomycin (50 μg/ml).
as §2, §1

Take `C(=N\C1CCC(CC2CCCCC2)CC1)/OC1CCOC1` (stereo not shown) [PluriSIn #15]: the EC50 (usually the concentration that produces a half-maximal response) in assay [1] (24 hours, differentiated cells) was greater than 50 µM; in assay [2] (24 h) it was 10 µM; in assay [3] (24 hours, differentiated cells), greater than 50 µM. Moreover, the inhibition (usually the change of the read-out against control, counted positive when it falls) at 20 µM in assay [1] (at 20 μM) is 2.1%; in assay [2] (at 20 μM, pluripotent stem cells) it was 72.2%; in assay [3] (at 20 μM), -6.1%; in assay [4], 9.9%.
